This passage reports pest or weed control, GPA rating and YFM rating results from patent US9924716B2, “Molecules having pesticidal utility, and intermediates, compositions, and processes, related thereto” (Dow AgroSciences LLC, priority 2016, dated 2018).

Common to all, as to type: in vivo
Assay [1] relates to Beet Armyworm (Spodoptera exigua, LAPHEG) second instar larvae. The assay is described as follows: Bioassay on Beet Armyworm (BAW), 128-well diet tray assay. The conditions noted are these: Beet Armyworm, Table ABC Biological Results, read-out: BAW rating. In short, it runs like this: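 Second-instar larvae, one to five per well, on artificial diet surface-treated with 50 μg/cm^2 compound in acetone-water, dried; eight wells per compound. Held 25 °C, 14:10 light-dark, five to seven days; percent mortality averaged over wells.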

For assay [2], the system named is Cabbage Looper (Trichoplusia ni, TRIPNI) second instar larvae. In words: Bioassay on Cabbage Looper (CL), 128-well diet tray assay. As to conditions: Cabbage Looper, Table ABC Biological Results, read-out: CL rating. Put shortly: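 Second instar larvae (1–5 per well) on artificial diet surface-treated with 50 μg/cm² compound in 90:10 acetone-water, eight wells per compound. Held 5–7 days at 25 °C, 14:10 light-dark; percent mortality averaged across wells.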

The test system of assay [3] is Green Peach Aphid (Myzus persicae, MYZUPE). The assay is described as follows: Bioassay on Green Peach Aphid (GPA), foliar spray on cabbage seedlings. As to conditions: Table ABC Biological Results. The method, then: Certain molecules disclosed in this document were tested against GPA using procedures described in the following example. In the reporting of the results, the “GPA & YFM Rating Table” was used (See Table Section). Cabbage seedlings grown in 3-inch pots, with 2-3 small (3-5 cm) true leaves, were used as test substrate. The seedlings were infested with 20-50 GPA (wingless adult and nymph stages) one day prior to chemical application. Four pots with individual seedlings were used for each treatment. Test molecules (2 mg) were dissolved in 2 mL of acetone/methanol (1:1) solvent, forming stock solutions of 1000 ppm test molecule. The stock solutions were diluted 5× with 0.025% Tween 20 in water to obtain the solution at 200 ppm test molecule. A hand-held aspirator-type sprayer was used for spraying a solution to both sides of […] leaves until runoff. Reference plants (solvent check) were sprayed with the diluent only containing 20% by volume of acetone/methanol (1:1) solvent. Treated plants were held in a holding room for three days at approximately 25° C. and ambient relative humidity (RH) prior to grading. […] Percent Control was measured by using Abbott's correction formula (W. S. Abbott, “A Method of Computing the Effectiveness of an Insecticide” J. Econ. Entomol. 18 (1925), pp. 265-267) as follows. […]

Assay [4] has as its system Yellow Fever Mosquito (Aedes aegypti, AEDSAE) larvae. The assay is described as follows: Bioassay on Yellow Fever Mosquito (YFM), 96-well plate larval assay. As to conditions: Table ABC Biological Results. The method, then: Certain molecules disclosed in this document were tested against YFM using procedures described in the following paragraph. In the reporting of the results, the “GPA & YFM Rating Table” was used (See Table Section).
Master plates containing 400 μg of a molecule dissolved in 100 μL of dimethyl sulfoxide (DMSO) (equivalent to a 4000 ppm solution) are used. A master plate of assembled molecules contains 15 μL per well. To this plate, 135 μL of a 90:10 water:acetone mixture is added to each well. A robot (Biomek® NXP Laboratory Automation Workstation) is programmed to dispense 15 μL aspirations from the master plate into an empty 96-well shallow plate (“daughter” plate). There are 6 reps (“daughter” plates) created per master. The created daughter plates are then immediately infested with YFM larvae.
The day before plates are to be treated, mosquito eggs are placed in Millipore water containing liver powder to begin hatching (4 g. into 400 mL). After the daughter plates are created using the robot, they are infested with 220 μL of the liver powder/larval mosquito mixture (about 1 day-old larvae). After plates are infested with mosquito larvae, a non-evaporative lid is used to cover the plate to reduce drying. Plates are held at room temperature for 3 days prior to grading. After 3 days, each well is observed and scored based on mortality. The results are indicated in the table entitled “Table ABC: Biological Results” (See Table Section).

For `C[C@H](NC(=O)CCC(F)(F)F)NC(=O)c1ccc(/C(F)=C/C(c2cc(Cl)c(F)c(Cl)c2)C(F)(F)F)cc1C(F)(F)F` (stereo partly drawn) [F17, 4-((Z)-3-(3,5-Dichloro-4-fluorophenyl)-1,4,4,4-tetrafluorobut-1-en-1-yl)-N—((R)-1-(4,4,4-trifluorobutanamido)ethyl)-2-(trifluoromethyl)benzamide], the pest or weed control at 50 µg/cm2 in assay [1] and in assay [2] was 50 to 100% in each case. The GPA rating result in assay [3] is on record as “B (More than 0-Less than 80)”. For the same molecule, the YFM rating result in assay [4] is “A (80-100)”.

As to `C[C@H](NC(=O)CC(F)(F)F)NC(=O)c1ccc(/C(F)=C/C(c2cc(Cl)c(Br)c(Cl)c2)C(F)(F)F)cc1C(F)(F)F` (stereo partly drawn) [F31, 4-((Z)-3-(4-Bromo-3,5-dichlorophenyl)-1,4,4,4-tetrafluorobut-1-en-1-yl)-2-(trifluoromethyl)-N—((R)-1-(3,3,3-trifluoropropanamido)ethyl)benzamide], the pest or weed control at 50 µg/cm2 in assay [1] and in assay [2] was 50 to 100% throughout. Also, the GPA rating entry in assay [3] is listed as “B (More than 0-Less than 80)”. For the same molecule, in assay [4], the YFM rating entry is “A (80-100)”.
